The source of these data is patent US4912092A, “Methods for increasing extracellular adenosine and for stabilizing mast cells” (The Regents of the University of California, priority 1987, dated 1990).

SMILES strings stand for the structures. “Also recorded” adds a separate entry of the source.

In one series the test system is adenosine. Nature of the series: Coronary venous adenosine concentrations during coronary artery occlusion in dogs. Format: in vivo, dog. As to the method:
FIG. 3. […] Coronary venous blood was collected into chilled 2N perchloric acid at various times before and after coronary artery occlusion. Supernatants from these extracts were neutralized with alamine and freon and evaluated by high performance liquid chromotography.
(§1) Thirteen mongrel dogs were anesthetized with phenobarbital. […] C.V. Dis. 20; 55 (1977). […] Two of the surviving saline-treated animals fibrillated. […] The range was 4.4 to 100 μM.

The subject of a further series is inosine. The series can be described thus: Venous inosine levels during coronary artery occlusion in dogs. The format is in vivo, dog. The following applies: over the 60-minute assay period (FIG. 5). As to the method: as §1
That the increase in the levels of adenosine is due, at least in part, to a reduction in the amount of ATP that is converted to inosine was shown by analysis of venous blood from dogs in Example III for inosine levels.

Series [1] relates to adenylosuccinase deficiency (autism). The series can be described thus: Therapeutic trial in patients with adenylosuccinase deficiency (autism). The format is in vivo, human. An excerpt:
Following authorization, therapeutic trials with AICA riboside were started in two patients with adenylosuccinase deficiency (autism). […] On Day 55, both patients were briefly readmitted for clinical, biochemical and psychiatric evaluation. […] Treatment was maintained until Day 71, and arrested at that date.

Series [2] concerns Mouse bone marrow-derived mast cells. The format is cell-based. Conditions: 100 micromolar, A23187 at 1 μg/ml; 28.8% in its absence. As to the method:
By preventing mast cell degranulation, it is possible to prevent or control a patient's allergic response. Bone marrow obtained from Balb/C mice femurs was cultured in a 1:1 mixture of Razin media and conditioned media, produced by co-culturing splenocytes from C57B1/6J and C3H mice in the presence of Concanavalin A as described by Razin et al. in the Proc. Natl. Acad. Sci. USA 28: 2559-2561, 1981. After weekly passaging and at least 15 days in tissue culture, the resulting cells were 90% pure mast cells and 95% viable as assessed by Trypan blue exclusion. Cells exposed to ribavirin in culture were washed three times prior to use in experiments. Parallel cultures of cells grown in media alone were used as controls for pharmacologically manipulated mast cells. Cell growth was assessed by counting cells at particular time points and comparing actual numbers of ribavirin-treated cells to numbers of cells grown in media alone.
β-hexosaminidase was chosen as a representative granule-associated, preformed mast cell mediator because it is easily quantitated, and its release nearly identically parallels that of histamine. Mouse bone marrow-derived mast cells were centrifuged at 200×g for 5 minutes, washed three times in Tyrode's buffer lacking divalent cations, sensitized for 30 minutes at 37° C. with anti-DNP ([…]) IgE (1 μg/10^6 cells) and challenged with either DNP-BSA antigen (175 ng/3×10^5 cells) or A23187 (10 μg/ml/3×10^5 cells) in 400 μl of complete Tyrode's buffer for 10 minutes at 37° C. Reaction mixtures were centrifuged at 200×g for 10 minutes, and supernatant and pellet β-hexosaminidase concentrations were assayed by the hydrolysis of p-nitrophenyl-β-D-glucosamide as described in Schwartz et al. in J. Immunol. […] Spontaneous β-hexosaminidase release was determined in unchallenged cells. The net % of β-hexosaminidase released is defined as follows: [formula] where [β-hex] is β-hexosaminidase and super. is supernatant. When exogenous adenosine was present in reaction mixtures, it was added simultaneously with the secretagogue.

The test system of series [3] is isuprel-induced arrhythmias. Nature of the series: Isoproterenol (isuprel)-induced arrhythmias. Format: in vivo, rat. Conditions: 1000 mg/kg intraperitoneally. As to the method: Five minutes later both animals were anesthetized with 330 mg/kg of chloral hydrate injected intraperitoneally. Then a single EKG lead was attached to each rat for simultaneous recording of the paired rats' electrocardiograms. To produce arrhythmia, each rat was injected subcutaneously with isuprel […].
Beginning 30 minutes after isuprel introduction, the electrocardiograph recording paper speed was run (5 cm/sec) for 10 minutes to count the arrhythmic beats of both animals.

For series [4] the following is noted: dog, in vivo.
Procedure: Thirteen mongrel dogs were anesthetized with phenobarbital. The anterior coronary vein was cannulated and a blood sample was collected into 2N perchloric acid. […] Regional myocardial blood flow was measured within 15 μm radiolabelled spheres infused into the left atzium at 5 and 60 minutes during the ischemic period, as described by Heymann et al. in Prog. […] The electrocardiogram and arterial pressure were monitored throughout the period of ischemia.
[5] abbreviates: after two months of continuous administration.

As for `NC(=O)c1ncn([C@@H]2O[C@H](CO)[C@@H](O)[C@H]2O)c1N` [AICA riboside, 5-amino-4-imidazolecarboxamide riboside], in the series on adenosine (1 minute after reperfusion), the “adenosine washout on reperfusion” value was “significant rise”. For the same molecule, the “peak adenosine level, coronary venous blood” value with adenosine (1 minute of ischemia, saline peak 0.22 +/-0.08 at 10 minutes) came to 1.79 ± 0.35 µM. The “adenosine level, coronary venous blood” value with adenosine (60 minutes of ischemia, saline undetectable) was found to be 0.18 ± 0.15 µM. The “venous adenosine prior to ischemia” value in the series on adenosine (before and during infusion) was under 0.01 µM. Further, the “adenosine in blood from the right atrium (systemic blood)” value with adenosine (dog, in vivo) was “no detectable adenosine”. The “inosine levels in venous blood versus saline” value in the series on inosine was “more than twofold decrease”. Also, in series [1] (setting [5]), the “autistic features, older patient” value is “did not show any modification” and the “autistic features, younger sibling” value was “clear-cut improvement”. In addition, in series [1] (before and during the trial treatment), the “haematology and clinical chemistry parameters” value is “normal”. Besides, in series [1] (during therapy), the “parent's description of both patients” value is “more pleasantly active and more easy to handle during therapy”. Further, the “clinical or biochemical side effects” value in series [1] (oral 5 mg/kg/day up to 2×10 mg/kg/day) is on record as “no adverse effects; also recorded: No clinical or biochemical side effects were observed”. Moreover, the hexosaminidase released in series [2] is 17.6%. Further, in series [3], the “reduction in paroxysmal ventricular contractions” value came to 39% and the ventricular fibrillation result is listed as “complete suppression”. Further, in series [4], the “arterial blood gas-content and systemic venous granulocyte counts versus saline” value was “not significantly different”; the “systemic arterial pressure and heart rate versus saline” value was “no significant differences”.
